The subject of test [1] is leishmanial decoding (UGA stop codon read-through). Briefly: In vitro assessment of misreading (dual-luciferase UGA stop codon read-through) in L. tarentolae lysates. In kind it is biochemical. Conditions: for Misreading activity (UGA stop codon read-through) at IC50 levels: at the compound's IC50 concentration, L. tarentolae lysates. An excerpt:
To examine AG modes of action in Leishmania, we designed a dual-reporter assay whereby an in-frame linker containing a UGA stop mutation was introduced in between two genes encoding Renilla and Firefly luciferases cloned into an in vitro Leishmania expression system. A similar system was previously used to assess stop codon read-through events in bacteria as well as other eukaryotes, and as these levels seemed to correspond to tRNA misreading levels it has also been previously used to evaluate infidelity of translation[38],[39].
The content of a p2luc dual-luciferase derived from an SV-40 vector with either wild type or an in-frame TGA stop codon poly-linker was cloned into pLEXSY-invitro2 that is compatible with Leishmania in vitro translation (Jena Bioscience). SV-40 constructs were a generous gift by Professor Timor Baasov. Cloning has been performed by restriction-free (RF) PCR methodology as previously described by Unger et al.[40].
5′-[…]-3′ and 5′-[…]-3′ were used as forward and reverse primers, respectively. Primers were produced by custom design (Sigma). The in vitro misreading assays were performed in L. tarentolae lysates and were designed similarly to the inhibition of translation assay reported herein. The main modifications were that the final reaction volume was adjusted to 20 μl and that the assay has been performed in white polystyrene 96-well flatbottom plates (Nunc). Luciferase activity was determined after 120 min incubation at 26 °C, using the Dual luciferase reporter assay system (Promega) and was performed according to the manufacturer’s instructions.

Test [2] deals with bacterial translation (E. coli S30 extract). Also on record: method as in PMID 26264664. Conditions: mean ± SE, read-out: Inhibition of translation—IC50, Bacteria; cited from earlier work.
The subject of test [3] is rabbit reticulocyte lysate translation. Also on record: method as in PMID 26264664. The note with it: rabbit reticulocyte lysates; mean ± SE; read-out: Inhibition of translation—IC50, Reticulocytes; cited from earlier work.
Test [4] deals with leishmanial cytosolic ribosome. Briefly: In vitro inhibition of translation in L. tarentolae lysates (cell-free transcription-translation, EGFP reporter). In kind it is biochemical. The note with it: for IC50: L. tarentolae lysates, mean ± SE of at least three independent repeats, read-out: Inhibition of translation—IC50, Leishmania. From the text: (§1) In order to assess cytosolic ribosome susceptibility and selectivity to putative anti-leishmanial compounds, we performed three different cell-free transcription-translation assays in S30 extracts of E. coli (Promega), rabbit reticulocytes (Promega) and L. tarentolae (Jena Bioscience). […] The ribosomes derived from this species are highly similar to L. donovani ribosomes. Three plasmids, compatible with each extract system, were used in this study: pBESTlucTM (Promega) for the prokaryotic translation assay, Luciferase T7 DNA (Promega) for the reticulocytes and pLEXSY-invitro2-EGFP (Jena Bioscience) for Leishmania. Firefly luciferase was used as a reporter gene for the bacterial and reticulocyte systems and EGFP for Leishmania. […] Assays were performed in white polystyrene 96-well flat bottom plates (Nunc) for the luciferase and black polystyrene 384-well flat-bottom plates (Greiner) for the EGFP. Incubation times were 60 min at 37 °C, 90 min at 30 °C and 120 min at 26 °C for the bacterial, reticulocyte and Leishmania systems, respectively. Reactions were stopped by quick snap cooling followed by a 5-min incubation on ice. Luciferase activity was measured for each well following the addition of 50 μl Luciferase Assay reagent (Promega) by recording the chemi-luminescence signal on […] (Tecan). EGFP fluorescence (λ ex = 488 nm; λ em = 507 nm) was recorded on Tecan Infinite R®F200 microplate reader (Tecan). Extracts lacking the circular DNA template were used as negative control to calculate the fluorescence/chemi-luminescence background. Reaction mixtures without compound presence were used as positive control and were regarded as 100% translation. At least six different concentrations were used to plot each translation inhibition curve, experiments were performed in three independent repeats in duplicates. Half-maximal inhibition concentration (IC50) values were calculated from the concentration–response fitting curves of using GraFit7 software.

Test [5] deals with rabbit reticulocyte lysate translation. In words: In vitro inhibition of translation in rabbit reticulocyte lysates (luciferase reporter). Conditions: mean ± SE of at least three independent repeats, read-out: Inhibition of translation—IC50, Reticulocytes. In kind it is biochemical.
From the text: as §1

Test [6] deals with bacterial translation (E. coli S30 extract). Briefly: In vitro inhibition of translation in E. coli S30 extracts (luciferase reporter). Conditions: mean ± SE of at least three independent repeats, read-out: Inhibition of translation—IC50, Bacteria. The format is biochemical.
From the text: as §1

Data on six compounds can be found in publication PMC5693986, “Atomic resolution snapshot of Leishmania ribosome inhibition by the aminoglycoside paromomycin” (Nature Communications, 2017).

The structures appear in SMILES notation. Where “and” joins values, the source holds several entries; their conditions need not be identical. Equal entries are not always repeated. Where two headings read alike, the source gives them in different places.

In the case of `NC[C@@H]1O[C@H](O[C@H]2[C@@H](O)[C@H](O[C@@H]3[C@@H](O)[C@H](N)C[C@H](N)[C@H]3O[C@H]3O[C@H](CO)[C@@H](O)[C@H](O)[C@H]3N)O[C@@H]2CO)[C@H](N)[C@@H](O)[C@@H]1O` [PAR, paromomycin], the “Misreading activity (UGA stop codon read-through) at IC50 levels” value in test [1] is listed as 26%. Also, the results for the concentration for half-maximal inhibition (IC50) in test [2], in test [3] and in test [4] were 51 ± 5 nM, 57000 ± 4000 nM and 3620 ± 176 nM, respectively.

Regarding `CNC(C)C1CCC(N)C(OC2C(N)CC(N)C(OC3OCC(C)(O)C(NC)C3O)C2O)O1` (stereo not shown) [GEN, gentamicin], the IC50 in test [5] was 62000 ± 9000 nM; in test [4] it was 18400 nM; in test [6], 28 ± 4 nM.

As for `CNC1CC(N)C(O)C(OC2OC(CO)C(O)C3OC4(OC(C(N)CO)C(O)C(O)C4O)OC23)C1O` (stereo not shown) [HYG, hygromycin B], the “Misreading of the genetic code (result in words)” value in test [1] (at concentrations corresponding to its IC50 value) is on record as “does not induce misreading”. The IC50 is 800 ± 100 nM in test [5]; 65 nM and 64.7 nM in test [4]; 11 ± 2 nM in test [6].

On to `NC[C@@H]1O[C@H](O[C@H]2[C@@H](O)[C@H](O[C@@H]3[C@@H](O)[C@H](N)C[C@H](N)[C@H]3O[C@H]3O[C@H](CN)[C@@H](O)[C@H](O)[C@H]3N)O[C@@H]2CO)[C@H](N)[C@@H](O)[C@@H]1O` [NEO, neomycin B], for which the 50% inhibitory concentration (IC50) in test [5] turned out to be 28000 ± 5000 nM; in test [4], 82400 nM; in test [6], 11 ± 1 nM.

`CN[C@@H]1[C@@H](O[C@H]2O[C@H](CO)[C@@H](N)[C@H](O)[C@H]2O)OC2C[C@@H](N)[C@@H](O[C@H]3[C@H](O)[C@@H](O)[C@H](N)C[C@@H]3N)OC2[C@@H]1O` (stereo partly shown) [APR, apramycin]: the “Misreading activity (UGA stop codon read-through) at IC50 levels” value in test [1] was determined as 5%. The IC50 in test [5] was found to be 29000 ± 6000 nM; in test [4] it was 201000 ± 16100 nM; in test [6], 49 ± 3 nM. In addition, the “Reduced activity in Leishmania compared to bacteria (inhibition of translation)” value in test [4] (Leishmania versus bacterial ribosome, from Table 1) is recorded as 4 orders of magnitude.

In the case of `CN[C@@H]1[C@@H](O)[C@@H](O[C@@H]2[C@@H](O)[C@H](O[C@H]3O[C@H]([C@@H](C)O)[C@@H](O)[C@H](O)[C@H]3N)[C@@H](N)C[C@H]2N)OC[C@]1(C)O` [G418, geneticin], the IC50 in test [2] was 9 ± 1.5 nM; in test [3] it was 2000 ± 300 nM; in test [4], 150 nM and 153 nM.
